Measured values taken from US20250123273A1, “SYSTEM TO CALCULATE HUMAN ORAL BIOAVAILABILITY” (CN Bio Innovations Limited, priority 2023, published 2025).

How the values were obtained:
[1] = system: primary human intestinal cells; assay: Intestinal barrier strength by transepithelial electrical resistance (TEER), primary intestinal cells in different media; assay type: cell-based; conditions: after 8 days in culture, FIG. 3
Excerpt: It was clear that that serum free intestinal differentiation media compromised the metabolic functionality of primary liver cells, thus would not be appropriate for the co-culture of these two cell types. Therefore, the inventors investigated which components of serum free intestinal differentiation media were important for intestinal barrier function.

primary liver cells = assay: CYP3A4 metabolic rate of primary liver cells co-cultured with primary intestinal cells in dual organ plate; assay type: cell-based, human; conditions: co-culture with primary intestinal cells; threshold 1 pmol/min/million cell; by day 6 in culture; FIG. 4

Compound	TEER (intestinal barrier strength) [1]	CYP3A4 metabolic rate (primary liver cells)
C[C@]12CCC(=O)C=C1CC[C@@H]1[C@@H]2[C@@H](O)C[C@@]2(C)[C@H]1CC[C@]2(O)C(=O)CO [hydrocortisone, reference compound]	help maintain primary intestinal cell barrier function	–
epidermal growth factor [EGF]	critical for primary intestinal cell barrier function	compromises the metabolic functionality
